The text below walks through data of patent publication US6962930B1, “Compounds, compositions and method suitable for amelioration of withdrawal syndromes and withdrawal-induced brain damage” (Lohocla Research Corporation, priority 1997, dated 2005).

SMILES strings stand for the structures.

For assay [1], the target named is T1, NMDA receptor ion channel (Rattus norvegicus, UniProt P35439).
T1 construct: from tissue; host or cells: rat cerebral cortex, crude synaptic (buffy coat) membranes
Briefly: [3H]dizocilpine binding to rat cortical membranes. To be noted: no exogenous glycine; 100 or 300 μM DCUKA, 30 or 100 μM DCUK-OMe; attenuated by 1 μM glycine. Here is the method: [^3H]Dizocilpine (MK-801) binding assays were performed in a volume of 1 ml containing 100–150 μg of tissue, 5 nM [^3H]dizocilpine, 10 μM L-glutamate, 30 μM MgSO4, and 100 or 300 μM DCUKA or 30 or 100 μM DCUK-OMe, in 10 mM HEPES-KOH buffer (pH 7.4 at 23° C.). Incubations were for 30 minutes at room temperature. The reaction mixtures were filtered over GF/B filters presoaked in 0.1% polyethyleneimine. Bound radioactivity was quantitated by liquid scintillation spectroscopy. Non-specific binding was defined with 20 μM dizocilpine. Under these conditions, [^3H]dizocilpine binding can be used as a measure of the activation of the NMDA receptor ion channel by glycine. See, for example, Wong, E. H. F., et al.,“ GLYCINE MODULATES [^3H]MK-801BINDING TO THE NMDA RECEPTOR IN RAT BRAIN.” Eur. J. Pharmacol., 142 487–488 (1987).
The results obtained are plotted in FIG. 2 where open bars indicate no glycine added and hatched bars indicate 1 μM glycine added to the incubation. Data were statistically analyzed by 2-way analysis of variance (ANOVA) followed by Tukey test. In FIG. 2, * denotes P<0.05 compared to the zero concentration of DCUKA or DCUK-OMe within a given glycine condition, while ** denotes P<0.05 compared to the 0 glycine condition at a given concentration of DCUKA or DCUK-OMe. […]

For assay [2], the system named is audiogenic seizures in DBA/2J mice. Briefly: Audiogenic seizures. To be noted: 100 or 500 mg/kg, about 90 minutes before stimulus. It counts as in vivo. Here is the method:
Male DBA/2J mice (20–22 days old; 8–12 g) were used to evaluate the effects of DCUK-OMe in an animal model of partial seizures. A description of this test for audiogenic seizures can be found in Engstrom, F. L., et al., “SEIZURE SUSCEPTIBILITY IN DBA AND C57 MICE: THE EFFECTS OF VARIOUS CONVULSANTS,” Epilepsia., 29 389–395 (1988), the relevant disclosures of which are incorporated herein by reference. Mice were injected with either vehicle (5% Tween-80, 20% Intralipid) or 100 mg/kg or 500 mg/kg DCUK-OMe suspended in the vehicle about 90 minutes before being placed into a testing chamber having a size of about 6 inches (about 15.2 cm) diameter×about 20 inches (about 50.8 cm) height enclosed in a sound-attenuated box. After a 15–20 second habituation period, a high-intensity auditory stimulus (ringing doorbell, 12–16 kHz, 109 db) was activated for 30 seconds or until tonic hindlimb extension occurred. The seizure response in these mice was characterized by a progression of a wild running behavior, followed by loss of righting and clonus of the forelimbs, followed by tonic hindlimb extension, and finally respiratory arrest. The number of mice showing each response was recorded. […] Data were analyzed by the Fisher Exact Test. In FIG. 8, * denotes P<0.05 compared to vehicle injected mice.

The target of assay [3] is voltage-sensitive sodium channels. Briefly: [3H]BTX binding to rat cortical synaptosomes. To be noted: non-depolarizing conditions, none = no displacement at 100 μM, read-out: IC50 (μM) [3H]BTX binding.
Assay [4] deals with T2, strychnine-insensitive glycine binding site on the NMDA receptor (Rattus norvegicus, UniProt P35439).
T2 construct: from tissue; host or cells: rat cerebral cortex, crude synaptic (buffy coat) membranes
In words: [3H]5,7-DCKA binding to rat cortical membranes. To be noted: 20 nM [3H]5,7-DCKA. The method, then: Male Sprague-Dawley rats were killed, their brains removed, and their cerebral cortices dissected and binding of [^3H]5,7-dichlorokynurenate ([^3H]5,7-DCKA) assayed. [^3H]5,7-DCKA binding assays were performed in crude synaptic membranes prepared by a modification of the method of Jones, et al., J. Pharmacol. Methods, 21 161–168 (1989) the relevant disclosures of which are incorporated herein by reference. The pelleted “buffy coat”fraction was obtained by centrifugation and frozen at about −80° C. for at least 18 hours. On the day that the binding assays were performed, the pelleted membranes were resuspended in 50 mM HEPES-KOH buffer (pH 7.8) containing 0.08% TRITON® X-100. After stirring for about 30 min at about 4° C., the membranes were pelleted by recentrifugation and then washed twice by resuspension in buffer and centrifugation.
Binding assays were performed in 0.5 ml volume using 150–200 μg of tissue, 20 nM [^3H]5,7-DCKA and 3–300 μM DCUKA or MeO-DCUKA or 1–100 μM DCUK-OMe (all concentrations are final concentrations in 0.6% dimethyl sulfoxide (DMSO)). Incubations were performed for about 45 min at about 4° C. followed by termination by centrifugation. Bound radioactivity was quantitated by liquid scintillation spectroscopy. Non-specific binding was defined with 1 mM glycine.

Assay [5] concerns the target α2-noradrenergic receptors. Briefly: [3H]rauwolscine binding, rat cortex crude membranes. Particulars: crude P1 membranes. The method, then: Rat cortices were homogenized in 20 volumes of ice-cold HEPES-KOH buffer (20 mM, pH 7.4) and twice centrifuged at 50,000 g for 20 min with an intermediate suspension in fresh buffer. The final pellet was stored at −20° C. in 4 volumes of buffer. The binding of [^3H]rauwolscine was performed in a 0.5 ml volume using 250–300 μg tissue and 1 nM [^3H]rauwolscine in 20 mM HEPES-KOH buffer (pH 7.4 at 23° C.). Non-specific binding was defined by use of 100 μM norepinephrine.

Take `COC(=O)c1cc(NC(=O)N(c2ccccc2)c2ccccc2)c2c(Cl)cc(Cl)cc2n1` [DCUK-OMe, (N,N-diphenyl)-4-ureido-5,7-dichloro-2-carboxy-quinoline methyl ester]: the “effect on [3H]dizocilpine binding” value in assay [1] was “concentration-related decrease in [^3H]dizocilpine binding”. Also, in assay [2], the “frequency of clonic audiogenic seizures” value is recorded as “suppression of audiogenic seizures”. Besides, the half-maximal inhibitory concentration (IC50) was 25 µM in assay [3] and 5 µM in assay [4].

In the case of `O=C(O)c1cc(NC(=O)N(c2ccccc2)c2ccccc2)c2c(Cl)cc(Cl)cc2n1` [DCUKA, (N,N-diphenyl)-4-ureido-5,7-dichloro-2-carboxy-quinoline], the “effect on [3H]dizocilpine binding” value in assay [1] was “concentration-related decrease in [^3H]dizocilpine binding”. The IC50 was more than 200 µM in assay [5], 76 µM in assay [3] and 22 µM in assay [4].
